ChEMBL document CHEMBL1150997, “Novel compound stimulates amylase induction in barley seeds” (Bioorg Med Chem Lett, 1994)

Key:
Format in all cases: functional
[1] = tested on: Hordeum vulgare subsp. vulgare; experiment: Amylase induction activity in barley aleurone layer at 0.01 uM
[2] = tested on: Hordeum vulgare subsp. vulgare; experiment: Amylase induction activity in barley aleurone layer at 0.1 uM
[3] = tested on: Hordeum vulgare subsp. vulgare; experiment: Amylase induction activity in barley aleurone layer at 1 uM

Structure (SMILES): CC1=C(C(=O)O)[C@H]2[C@@H](C(C)C)CC[C@]1(C)[C@H]2CO
- Activity [1]: 0
- Activity [2]: 1
- Activity [3]: 4
